Source: the NIST ThermoML archive (doi:10.1016/j.fluid.2016.02.031)
± gives the expanded uncertainty stated by the source.

Assay: xn = mol fraction of the nth substance listed
Details: 100 kPa, Liquid; for viscosity: Concentric cylinders viscometry; for mass density: Vibrating tube method

OCCCO [propan-1,3-diol] + CCC(C)=O
Details | mass density [kg/m3] | viscosity [mPa·s]
288.15 K, x1 = 0.1052 | 834.263 ± 0.2 | 0.5783 ± 0.0079
288.15 K, x1 = 0.2004 | 855.981 ± 0.2 | 0.8238 ± 0.01
288.15 K, x1 = 0.3002 | 879.545 ± 0.2 | 1.258 ± 0.015
288.15 K, x1 = 0.4003 | 904.311 ± 0.2 | 2.132 ± 0.024
288.15 K, x1 = 0.4999 | 929.443 ± 0.19 | 3.633 ± 0.04
288.15 K, x1 = 0.5992 | 954.483 ± 0.19 | 6.313 ± 0.069
288.15 K, x1 = 0.6992 | 979.932 ± 0.18 | 11.18 ± 0.12
288.15 K, x1 = 0.7989 | 1003.76 ± 0.18 | 20.31 ± 0.22
288.15 K, x1 = 0.8998 | 1028.39 ± 0.19 | 37.46 ± 0.41
288.15 K, x1 = 1 | 1055.96 ± 0.19 | 68.06 ± 0.75
293.15 K, x1 = 0.1052 | 829.229 ± 0.21 | 0.5513 ± 0.0076
293.15 K, x1 = 0.2004 | 851.106 ± 0.2 | 0.7652 ± 0.0097
293.15 K, x1 = 0.3002 | 874.858 ± 0.2 | 1.144 ± 0.014
293.15 K, x1 = 0.4003 | 899.864 ± 0.2 | 1.889 ± 0.022
293.15 K, x1 = 0.4999 | 925.2 ± 0.19 | 3.143 ± 0.035
293.15 K, x1 = 0.5992 | 950.438 ± 0.19 | 5.35 ± 0.059
293.15 K, x1 = 0.6992 | 976.1 ± 0.19 | 9.291 ± 0.1
293.15 K, x1 = 0.7989 | 1000.12 ± 0.18 | 16.48 ± 0.18
293.15 K, x1 = 0.8998 | 1024.96 ± 0.19 | 29.8 ± 0.32
293.15 K, x1 = 1 | 1052.87 ± 0.19 | 52.75 ± 0.55
298.15 K, x1 = 0.1052 | 824.172 ± 0.21 | 0.5185 ± 0.0073
298.15 K, x1 = 0.2004 | 846.22 ± 0.2 | 0.714 ± 0.0092
298.15 K, x1 = 0.3002 | 870.166 ± 0.2 | 1.046 ± 0.013
298.15 K, x1 = 0.4003 | 895.391 ± 0.2 | 1.688 ± 0.019
298.15 K, x1 = 0.4999 | 920.936 ± 0.19 | 2.744 ± 0.031
298.15 K, x1 = 0.5992 | 946.376 ± 0.19 | 4.578 ± 0.05
298.15 K, x1 = 0.6992 | 972.256 ± 0.19 | 7.804 ± 0.085
298.15 K, x1 = 0.7989 | 996.448 ± 0.18 | 13.57 ± 0.15
298.15 K, x1 = 0.8998 | 1021.51 ± 0.19 | 24.01 ± 0.26
298.15 K, x1 = 1 | 1049.76 ± 0.19 | 41.97 ± 0.45
303.15 K, x1 = 0.1052 | 819.09 ± 0.21 | 0.4891 ± 0.007
303.15 K, x1 = 0.2004 | 841.328 ± 0.2 | 0.6674 ± 0.0088
303.15 K, x1 = 0.3002 | 865.461 ± 0.2 | 0.9604 ± 0.012
303.15 K, x1 = 0.4003 | 890.9 ± 0.2 | 1.517 ± 0.018
303.15 K, x1 = 0.4999 | 916.653 ± 0.19 | 2.414 ± 0.027
303.15 K, x1 = 0.5992 | 942.296 ± 0.19 | 3.957 ± 0.044
303.15 K, x1 = 0.6992 | 968.392 ± 0.19 | 6.624 ± 0.072
303.15 K, x1 = 0.7989 | 992.685 ± 0.18 | 11.3 ± 0.12
303.15 K, x1 = 0.8998 | 1018 ± 0.19 | 19.67 ± 0.21
303.15 K, x1 = 1 | 1046.64 ± 0.19 | 33.56 ± 0.36
308.15 K, x1 = 0.1052 | 813.976 ± 0.21 | 0.4633 ± 0.0068
308.15 K, x1 = 0.2004 | 836.391 ± 0.2 | 0.6247 ± 0.0083
308.15 K, x1 = 0.3002 | 860.732 ± 0.2 | 0.8841 ± 0.011
308.15 K, x1 = 0.4003 | 886.382 ± 0.2 | 1.379 ± 0.016
308.15 K, x1 = 0.4999 | 912.346 ± 0.2 | 2.141 ± 0.024
308.15 K, x1 = 0.5992 | 938.196 ± 0.19 | 3.447 ± 0.038
308.15 K, x1 = 0.6992 | 964.512 ± 0.19 | 5.663 ± 0.062
308.15 K, x1 = 0.7989 | 989.056 ± 0.18 | 9.517 ± 0.1
308.15 K, x1 = 0.8998 | 1014.59 ± 0.19 | 16.21 ± 0.18
308.15 K, x1 = 1 | 1043.5 ± 0.18 | 27.15 ± 0.29
313.15 K, x1 = 0.1052 | 808.832 ± 0.21 | 0.4382 ± 0.0066
313.15 K, x1 = 0.2004 | 831.418 ± 0.21 | 0.5847 ± 0.008
313.15 K, x1 = 0.3002 | 855.978 ± 0.2 | 0.8163 ± 0.01
313.15 K, x1 = 0.4003 | 881.838 ± 0.2 | 1.237 ± 0.015
313.15 K, x1 = 0.4999 | 908.015 ± 0.2 | 1.909 ± 0.022
313.15 K, x1 = 0.5992 | 934.073 ± 0.19 | 3.025 ± 0.034
313.15 K, x1 = 0.6992 | 960.613 ± 0.19 | 4.879 ± 0.053
313.15 K, x1 = 0.7989 | 985.317 ± 0.18 | 8.064 ± 0.088
313.15 K, x1 = 0.8998 | 1011.06 ± 0.19 | 13.49 ± 0.15
313.15 K, x1 = 1 | 1040.35 ± 0.18 | 22.22 ± 0.24
318.15 K, x1 = 0.1052 | 803.661 ± 0.21 | 0.4141 ± 0.0064
318.15 K, x1 = 0.2004 | 826.427 ± 0.21 | 0.548 ± 0.0076
318.15 K, x1 = 0.3002 | 851.191 ± 0.2 | 0.7557 ± 0.0097
318.15 K, x1 = 0.4003 | 877.271 ± 0.2 | 1.127 ± 0.013
318.15 K, x1 = 0.4999 | 903.664 ± 0.2 | 1.711 ± 0.02
318.15 K, x1 = 0.5992 | 929.93 ± 0.19 | 2.671 ± 0.03
318.15 K, x1 = 0.6992 | 956.69 ± 0.19 | 4.237 ± 0.047
318.15 K, x1 = 0.7989 | 981.556 ± 0.19 | 6.885 ± 0.075
318.15 K, x1 = 0.8998 | 1007.51 ± 0.19 | 11.33 ± 0.12
318.15 K, x1 = 1 | 1037.18 ± 0.18 | 18.35 ± 0.2
323.15 K, x1 = 0.1052 | 798.453 ± 0.21 | 0.3908 ± 0.0062
323.15 K, x1 = 0.2004 | 821.409 ± 0.21 | 0.5165 ± 0.0073
323.15 K, x1 = 0.3002 | 846.386 ± 0.2 | 0.7008 ± 0.0091
323.15 K, x1 = 0.4003 | 872.674 ± 0.2 | 1.03 ± 0.013
323.15 K, x1 = 0.4999 | 899.282 ± 0.2 | 1.542 ± 0.018
323.15 K, x1 = 0.5992 | 925.759 ± 0.19 | 2.372 ± 0.027
323.15 K, x1 = 0.6992 | 952.744 ± 0.19 | 3.702 ± 0.041
323.15 K, x1 = 0.7989 | 977.808 ± 0.19 | 5.939 ± 0.065
323.15 K, x1 = 0.8998 | 1004.01 ± 0.19 | 9.603 ± 0.1
323.15 K, x1 = 1 | 1033.98 ± 0.18 | 15.29 ± 0.17
328.15 K, x1 = 0.1052 | 793.206 ± 0.21 | 0.3682 ± 0.0059
328.15 K, x1 = 0.2004 | 816.363 ± 0.21 | 0.484 ± 0.007
328.15 K, x1 = 0.3002 | 841.54 ± 0.2 | 0.6507 ± 0.0086
328.15 K, x1 = 0.4003 | 868.041 ± 0.2 | 0.9438 ± 0.012
328.15 K, x1 = 0.4999 | 894.87 ± 0.2 | 1.393 ± 0.016
328.15 K, x1 = 0.5992 | 921.56 ± 0.19 | 2.121 ± 0.024
328.15 K, x1 = 0.6992 | 948.774 ± 0.19 | 3.257 ± 0.036
328.15 K, x1 = 0.7989 | 974.119 ± 0.19 | 5.165 ± 0.056
328.15 K, x1 = 0.8998 | 1000.59 ± 0.18 | 8.217 ± 0.089
328.15 K, x1 = 1 | 1030.77 ± 0.18 | 12.84 ± 0.14
333.15 K, x1 = 0.1052 | 787.917 ± 0.21 | 0.3461 ± 0.0058
333.15 K, x1 = 0.2004 | 811.298 ± 0.21 | 0.4456 ± 0.0066
333.15 K, x1 = 0.3002 | 836.659 ± 0.21 | 0.6058 ± 0.0082
333.15 K, x1 = 0.4003 | 863.375 ± 0.2 | 0.8671 ± 0.011
333.15 K, x1 = 0.4999 | 890.43 ± 0.2 | 1.271 ± 0.015
333.15 K, x1 = 0.5992 | 917.332 ± 0.2 | 1.911 ± 0.022
333.15 K, x1 = 0.6992 | 944.777 ± 0.19 | 2.894 ± 0.032
333.15 K, x1 = 0.7989 | 970.698 ± 0.19 | 4.581 ± 0.05
333.15 K, x1 = 0.8998 | 997.503 ± 0.18 | 7.128 ± 0.077
333.15 K, x1 = 1 | 1027.53 ± 0.18 | 10.96 ± 0.12
